In PMC11684002 (Journal of medicinal chemistry, 2020):

Tests used:
[1] = Photostationary states; format: physicochemical; settings: for PSS, % trans-isomer, dark: dark-adapted
[2] = molecular target: T1, human PPARα ligand binding domain (Gal4 hybrid) (Homo sapiens, UniProt Q07869); test: Gal4 hybrid reporter gene assay, PPARα; settings: trans-isomer in the dark, HEK293T
T1 sequence (Q07869 239-466 limits assumed): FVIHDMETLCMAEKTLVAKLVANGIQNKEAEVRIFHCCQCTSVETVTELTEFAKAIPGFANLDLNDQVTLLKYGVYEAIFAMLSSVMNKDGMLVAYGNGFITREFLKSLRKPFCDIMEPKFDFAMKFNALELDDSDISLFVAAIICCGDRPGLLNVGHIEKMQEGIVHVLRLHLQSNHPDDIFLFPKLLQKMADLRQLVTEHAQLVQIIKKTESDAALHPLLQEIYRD

[3] = system: human PPAR response element (PPRE), endogenous PPARγ; test: PPRE reporter gene assay in PPARγ expressing HepG2 cells; format: cell-based; settings: trans-isomer
[4] = system: PPARγ; settings: read-out: PPARγ agonist EC50; cited from earlier work
[5] = after 365 nm illumination, CDCl3
[6] = after 460 nm illumination, CDCl3

Row | PSS, % trans-isomer, 365 nm [1, 5] | PSS, % trans-isomer, 460 nm [1, 6] | PSS, % trans-isomer, dark ([1]; CDCl3) | Compound | EC50 [4] | also measured
1 | 4% | 80% | 100% | O=C1NC(=O)C(Cc2ccc(/N=N/c3ccccc3)cc2)S1 (stereo not shown) [AzoRosi, (E)-5-(4-(phenyldiazenyl)benzyl)thiazolidine-2,4-dione] |  | PPARα activation at 10 μM [2]: 8% activation at 10 μM
2 | 23% | 83% | 99% | Cc1ccccc1-c1ccc(/N=N/c2ccc(CC3SC(=O)NC3=O)cc2)cc1 (stereo not shown) [AzoRosi-4, (E)-5-(4-((2′-methyl-[1,1′-biphenyl]-4-yl)diazenyl)benzyl)thiazolidine-2,4-dione] |  | PPRE activation at 10 μM [3]: some PPRE activation was observed

Further lines, the molecule ahead of its results:

Row | Compound | PSS, % trans-isomer, 365 nm [1, 5] | PSS, % trans-isomer, 460 nm [1, 6] | PSS, % trans-isomer, dark ([1]; CDCl3) | EC50 [4] | also measured
3 | O=C(c1ccccc1)c1ccccc1N[C@@H](Cc1ccc(/N=N/c2ccccc2)cc1)C(=O)O [AzoGW1929, (S,E)-2-((2-benzoylphenyl)amino)-3-(4-(phenyldiazenyl)phenyl)propanoic acid] |  |  |  |  | PSS, % trans-isomer, 365 nm ([1]; after 365 nm illumination for five minutes, MeOD-d4): 67%; PSS, % trans-isomer, 460 nm ([1]; after 460 nm illumination for five minutes, MeOD-d4): 76%; PSS, % trans-isomer, dark ([1]; MeOD-d4): 95%
4 | O=C1NC(=S)NC(=O)C1=Cc1ccc(OCc2ccccc2)c(Cl)c1 [MDG548] |  |  |  | 215 nM | 
